Test results published in patent publication US20200223826A1, “Glucose-6-Phosphate Dehydrogenase (G6PD)-Modulating Agents And Methods Of Treating G6PD Deficiency” (The Board of Trustees of the Leland Stanford Junior …, priority 2017, published 2020).

How the values were obtained:
[1] = tested on: lymphocytes carrying the Canton variant; experiment: Cellular ROS measurement in lymphocytes; assay type: cell-based, human; details: treatment with AG1 for 24 hours
Protocol: Cells in a 96-well plate were incubated with chloromethyl-2′,7′-dichlorodihydrofluorescein diacetate (CM-H2DCFDA) at a final concentration of 5 μM in HBSS (Hank's balanced salt solution) for 30 minutes at 37° C. After wash, cells were treated with Hoechst 33342 (1:10,000 dilution, Molecular Probes) to stain nuclei and incubated for another 10 minutes at 37° C. Cells were washed in HBSS, and the florescence was analyzed with excitation/emission at 485/525 nm. Cells were subjected to serum starvation (50-75%) for 48 hours to induce oxidative stress and treated with the compound for 24 hours before measurement. The signal was normalized to nuclei staining (excitation/emission at 350/470 nm).

human erythrocytes = experiment: Erythrocyte refrigerated storage assay, protein leakage; assay type: cell-based; details: AG1 1 μM
Protocol: De-identified blood samples were obtained from the Stanford Blood Center. Erythrocytes were collected by filtering the samples through a cellulose slurry to remove platelets and leukocytes and then washed with saline. G6PD activity was measured (Beutler E. Red cell metabolism: A manual of biochemical methods (3rd edition). Grune & Stratton (1984)). […] A 5% erythrocyte suspension was pre-incubated with 1-5 μM AG1 at 4° C. overnight, which was followed by treatment with (or without) either 1 mM chloroquine (CQ) or 1 mM diamide for 3-4 hours at 37° C. (for hemolysis assay with chloroquine, the mixture was incubated under light). Then centrifugation at 1,000 rpm for 5 minutes was followed. Hemoglobin release in the supernatant was monitored by measuring absorbance at 540 nm. […] After wash, the samples were lysed with 0.1% Triton X-100 (final concentration), and the florescence was analyzed with excitation/emission at 485/525 nm. GSH measurement was determined using a Cayman glutathione assay kit (Cayman Chemicals, 703002). […] The absorbance was read at 412 nm. For storage assay, a 5% erythrocyte suspension was stored at 4° C. with and without 1 μM AG1, and hemolysis and G6PD activity were monitored every week for 28 days to examine whether AG1 improves preservation of erythrocytes over time. Protein leakage was also examined by measuring the absorbance of the supernatant of samples at 280 nm. […]

Canton G6PD = biological target: T1, Canton G6PD (Homo sapiens, UniProt P11413, R459L); experiment: Native gel electrophoresis, dimerization
T1 construct: His (pET-28a) (N, cleaved yes); made in house; host or cells: E. coli C43 (DE3)
T1 sequence (P11413 whole entry R459L): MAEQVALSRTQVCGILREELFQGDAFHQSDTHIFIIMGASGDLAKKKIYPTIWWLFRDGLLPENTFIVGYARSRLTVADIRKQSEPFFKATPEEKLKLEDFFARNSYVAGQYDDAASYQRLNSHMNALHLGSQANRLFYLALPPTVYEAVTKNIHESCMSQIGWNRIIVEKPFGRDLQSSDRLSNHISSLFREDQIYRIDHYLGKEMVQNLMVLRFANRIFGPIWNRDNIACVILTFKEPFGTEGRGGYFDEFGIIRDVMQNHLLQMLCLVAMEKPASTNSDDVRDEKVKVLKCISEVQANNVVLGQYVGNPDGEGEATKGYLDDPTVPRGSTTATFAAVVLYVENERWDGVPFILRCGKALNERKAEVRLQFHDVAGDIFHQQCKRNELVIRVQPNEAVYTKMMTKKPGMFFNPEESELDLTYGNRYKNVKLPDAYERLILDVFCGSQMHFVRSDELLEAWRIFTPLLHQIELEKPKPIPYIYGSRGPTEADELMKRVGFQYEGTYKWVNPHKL
Protocol: (§1) 200 ng of recombinant enzymes were incubated with the compound (varying in assays) for 10 minutes at room temperature. To prevent streaking and artifacts in native PAGE gel, the samples in a native state (no boiling of sample and no reducing agent in sample buffer) were electrophoresed by […]. Cross-linking assay was initiated by incubating 500 ng of recombinant enzymes in PBS with 0.1% of glutaraldehyde and different concentrations of NADP^+ (0, 10, 100, 1000 μM) or MgCl2 (0, 1, 10, 100 mM). The mixture was incubated for 10 minutes at room temperature, which was followed by the addition of 100 mM Tris (pH 8.0) at a final concentration to terminate the reaction. The samples were electrophoresed as described above.

Kaiping (R463H) G6PD = biological target: T2, Kaiping (R463H) G6PD (Homo sapiens, UniProt P11413, R463H); experiment: Native gel electrophoresis, dimerization of variant
T2 construct: His (pET-28a) (N, cleaved yes); made in house; host or cells: E. coli C43 (DE3)
T2 sequence (P11413 whole entry R463H): as the sequence (P11413 whole entry R459L) above, with L459R, R463H counted along it
Protocol: as §1

A- (V68M, N126D) G6PD = biological target: T3, A- (V68M, N126D) G6PD (Homo sapiens, UniProt P11413, N126D/V68M); experiment: as above
T3 construct: His (pET-28a) (N, cleaved yes); made in house; host or cells: E. coli C43 (DE3)
T3 sequence (P11413 whole entry V68M/N126D): as the sequence (P11413 whole entry R459L) above, with V68M, N126D, L459R counted along it
Protocol: as §1

[2] = biological target: T4, Mediterranean (S188F) G6PD (Homo sapiens, UniProt P11413, S188F); experiment: as above
T4 construct: His (pET-28a) (N, cleaved yes); made in house; host or cells: E. coli C43 (DE3)
T4 sequence (P11413 whole entry S188F): as the sequence (P11413 whole entry R459L) above, with S188F, L459R counted along it
Protocol: as §1

[3] = tested on: lymphocytes carrying the Canton variant; experiment: Viability of lymphocytes; assay type: cell-based, human; details: treatment with AG1 for 24 hours
Protocol: Cell viability was measured using a Cell-Counting Kit-8 (CCK-8, Dojindo), utilizing WST-8 [2-(2-methoxy-4-nitrophenyl)-3-(4-nitrophenyl)-5-(2,4-disulfophenyl)-2H-tetrazolium monosodium salt, according to the manufacturer's instructions. Cells were subjected to serum starvation for 48 hours before measurement. Cells in 100 μL of medium per well were treated with 10 μL of CCK-8 solution and incubated for 2 hours at 37° C. The absorbance was read at 450 nm. Viability of lymphocytes was measured by staining with a 0.4% solution of trypan blue in buffered isotonic salt solution (pH 7.2). The viability was calculated as the number of viable cells (non-stained by the dye) divided by the total number of cells within the grids on the hemacytometer. Cells were treated with 1 μM of the compound 24 hours before the measurement.

zebrafish embryos = experiment: ROS levels in chloroquine-treated zebrafish embryos; assay type: in vivo; details: chloroquine 50 μg/ml
Protocol: Embryos were dechorinated with pronase at 24 hours post fertilization (hpf) and treated with 50 μg/ml of chloroquine and/or AG1 by directly adding the compounds to the well. For ROS measurements, embryos were incubated with compounds for 2 hours, and then the ROS detecting reagent (CM-H2DCFDA) was added at a final concentration of 500 ng/ml to the well for a total treatment time of 5 hours. One embryo was placed to each well of a black, opaque 96-well plate. The florescence was analyzed with excitation/emission at 485/525 nm. After ROS assays, embryos at about 32 hpf were pooled and lysed in buffer containing 50 mM Tris (pH 7.4), 150 mM NaCl, 1 mM EDTA, 0.1% NP-40, and protease inhibitor cocktail, which was followed by three cycles of freeze and thawing in liquid nitrogen. The lysate was centrifuged at 14,000 rpm at 4° C. for 15 minutes. Total protein concentration in the supernatants (total lysate) was determined by Bradford method. 50 μg of total lysate was loaded onto 10% SDS-PAGE gels and the protein level was examined by Western blot using anti-G6PD antibody (Abcam (G6PD: AB87230)). 10 μg of total lysate was used for enzymatic assay. 50 μg of the lysate was used to measure NADPH levels using a NADPH quantification kit (Biovision), according to the manufacturer's instructions.

[4] = tested on: band 3 protein in human erythrocytes; experiment: Band 3 protein clustering in erythrocytes; assay type: cell-based; details: chloroquine or diamide treatment
[5] = biological target: 6-phosphogluconate dehydrogenase (6PGD) (Homo sapiens, UniProt P52209); experiment: Selectivity: dimerization or activity of other NAD/NADP+-dependent enzymes; assay type: biochemical
6-phosphogluconate dehydrogenase (6PGD), sequence (P52209 whole entry): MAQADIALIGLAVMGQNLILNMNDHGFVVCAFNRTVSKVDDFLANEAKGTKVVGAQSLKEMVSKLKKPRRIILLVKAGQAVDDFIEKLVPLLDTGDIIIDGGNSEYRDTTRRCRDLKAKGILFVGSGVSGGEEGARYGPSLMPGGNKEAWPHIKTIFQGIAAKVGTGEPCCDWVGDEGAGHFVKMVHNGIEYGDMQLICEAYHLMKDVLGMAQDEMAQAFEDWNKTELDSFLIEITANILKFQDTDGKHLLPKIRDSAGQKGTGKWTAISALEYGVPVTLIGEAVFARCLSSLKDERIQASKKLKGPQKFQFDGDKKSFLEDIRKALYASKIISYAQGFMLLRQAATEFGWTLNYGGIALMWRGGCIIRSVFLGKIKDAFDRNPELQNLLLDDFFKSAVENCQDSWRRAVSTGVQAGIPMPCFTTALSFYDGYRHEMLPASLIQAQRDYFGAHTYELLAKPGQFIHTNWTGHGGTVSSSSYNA

`SCCNCCc1c[nH]c2ccccc12` [AG1, 2-[2-(1H-indol-3-yl)ethylamino]ethanethiol] was tested, and the ROS level [1] was “decreased”, the protein leakage (human erythrocytes) was “decreased” and the “formation of active dimers” value (Canton G6PD) was “promoted formation of active dimers”. For the same compound, the dimerization of variant (Kaiping (R463H) G6PD) was “promoted their dimerization”, the dimerization of variant (A- (V68M, N126D) G6PD) was “promoted their dimerization” and the dimerization of variant [2] was “promoted their dimerization”. For the same compound, the viability [3] was “improved”, the ROS levels (zebrafish embryos) was “reduced” and the “band 3 protein aggregation” value [4] was “alleviated”. For the same compound, the “effect on dimerization or activity” value [5] was “no effect”.
